Reference: article PMC11997127 (Scientific Reports, 2025)

Assays:
[1] = target: T1, Staphylococcus aureus lipase (SAL) (Staphylococcus aureus, UniProt Q2G155); experiment: X-ray co-crystal structures; format: biochemical
[2] = target: T1, Staphylococcus aureus lipase (SAL); experiment: pNPB hydrolysis assay; format: biochemical

T1 sequence (Q2G155 297-690): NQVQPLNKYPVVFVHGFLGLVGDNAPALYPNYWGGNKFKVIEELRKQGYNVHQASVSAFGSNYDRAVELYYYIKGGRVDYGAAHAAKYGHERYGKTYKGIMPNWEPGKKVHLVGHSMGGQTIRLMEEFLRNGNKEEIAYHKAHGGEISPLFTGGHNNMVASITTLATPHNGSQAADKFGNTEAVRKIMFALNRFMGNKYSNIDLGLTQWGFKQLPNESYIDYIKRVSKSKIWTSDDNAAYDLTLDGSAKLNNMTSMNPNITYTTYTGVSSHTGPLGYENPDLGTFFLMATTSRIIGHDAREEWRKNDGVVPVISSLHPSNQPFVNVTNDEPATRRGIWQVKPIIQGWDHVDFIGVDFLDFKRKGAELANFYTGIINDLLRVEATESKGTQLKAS

## OC1(c2ccc(Cl)c(C(F)(F)F)c2)CCN(CCCC(c2ccc(F)cc2)c2ccc(F)cc2)CC1 [penfluridol, 1-[4,4-bis(4-fluorophenyl)butyl]-4-[4-chloro-3-(trifluoromethyl)phenyl]piperidin-4-ol]
[1]
  IC50: 7.3 µM

## O=c1[nH]c2ccccc2n1C1CCN(CCCC(c2ccc(F)cc2)c2ccc(F)cc2)CC1 [pimozide, 3-[1-[4,4-bis(4-fluorophenyl)butyl]piperidin-4-yl]-1H-benzimidazol-2-one]
[2]
  IC50: ~48.5 µM
